Consider 4 compounds from BindingDB's records for doi:10.1002/cbic.200500061 (University of Bristol, 2005).

The term Ki denotes the equilibrium dissociation constant of an inhibitor or competing ligand from its target.

This assay has as its target T1, 1-deoxy-D-xylulose 5-phosphate reductoisomerase (Escherichia coli (strain K12), UniProt P45568).
T1 sequence (P45568 whole entry): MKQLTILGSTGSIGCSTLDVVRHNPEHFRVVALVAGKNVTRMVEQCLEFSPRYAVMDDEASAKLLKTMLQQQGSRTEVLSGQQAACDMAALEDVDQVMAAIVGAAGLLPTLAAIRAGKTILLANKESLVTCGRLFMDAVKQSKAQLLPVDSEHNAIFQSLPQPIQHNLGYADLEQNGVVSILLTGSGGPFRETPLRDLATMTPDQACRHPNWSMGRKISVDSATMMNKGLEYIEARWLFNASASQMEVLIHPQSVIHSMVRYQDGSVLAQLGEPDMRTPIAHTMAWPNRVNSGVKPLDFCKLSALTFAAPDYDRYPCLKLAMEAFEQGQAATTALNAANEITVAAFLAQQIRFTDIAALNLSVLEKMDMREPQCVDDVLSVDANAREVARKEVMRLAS
Briefly: Inhibition Assay. The following applies: pH 8; 37 °C. How it is done:
The assay was monitored spectrophotometrically through the consumption of beta-NADPH. The inhibitor assays contained inhibitor at concentrations of 0.1-15 mM cyclic analogues and 5-35 mM phosphonic acid derivates.
The compound `O=C1OC[C@@H](COP(=O)(O)O)N1O` [Phosphate analogue, (s)-14] displayed an inhibition constant Ki of 0.75 mM.

In turn, `O=C1N[C@H](COP(=O)(O)O)CO1` [Phosphate analogue, (S)-21] had a Ki of 4.1 mM.

In turn, `CC(=O)NCCCP(=O)(O)O` [Phosphate analogue, 9] showed a Ki of 6.5 mM.

Take `NCCCP(=O)(O)O` [Phosphate analogue, 8]: the affinity corresponds to a Ki of 4 mM. This Ki is about 1.6-fold lower than that of the compound before.
